In US11524960B2, “Heterobicyclic inhibitors of MAT2A and methods of use for treating cancer” (AGIOS PHARMACEUTICALS, INC., priority 2018, dated 2022):

Legend:
MAT2A homodimer = molecular target: T1, MAT2A homodimer (Homo sapiens, UniProt P31153); assay: Biochemical assay: inhibition of MAT2A (phosphate release, PiColorLock Gold); details: MAT2A IC50 score; read-out: Enzyme Inhibition (Example 275)
T1 construct: inferred from Ni sepharose purification and imidazole elution; made in house; host or cells: Sf9 insect cells, recombinant baculovirus (Bac to Bac, pFASTBAC1)
How it was run: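 Baculovirus/Sf9-expressed, Ni-purified MAT2A at 4 µg/mL was preincubated with compound for 60 min at 25 °C in 50 mM Tris pH 8.0, 50 mM KCl, 15 mM MgCl2, 0.3 mM EDTA, 0.005% BSA. Substrate mix (500 μM ATP, 400 μM L-methionine) was added and the reaction ran 60 min at 25 °C. Phosphate released stoichiometrically with SAM was measured colorimetrically against a phosphate standard curve.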

HCT116 MTAP−/− = assay: Inhibition of cellular proliferation (Cell Titer Glo), HCT116 MTAP−/−; format: cell-based, human; details: Homo sapiens, HCT-116, 96 h, 4 days, IC50 score, read-out: 4 Day Relative Growth Inhibition (MTAP −/−; Example 277)
How it was run: (§1)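 Isogenic HCT116 lines, MTAP+/+ and MTAP−/−, treated 24 h after plating with 10-point 3-fold compound dilutions including DMSO only, then grown 4 days at 37 °C/5% CO2. Cell Titer Glo ATP luminescence, blank-subtracted and normalised to 0.2% DMSO control, gave percent change in proliferation versus log concentration.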

HCT116 MTAP+/+ = assay: Inhibition of cellular proliferation (Cell Titer Glo), HCT116 MTAP+/+; format: cell-based, human; details: Homo sapiens, HCT-116, 96 h, 4 days, IC50 score, read-out: 4 Day Relative Growth Inhibition (MTAP +/+; Example 277)
How it was run: as §1

[1] = system: SAM in HCT116 human colon carcinoma cell line engineered to delete the MTAP gene (MTAP −/−); assay: Cellular assay of target engagement (SAM) by LC-MS/MS; format: cell-based; details: Homo sapiens, HCT-116, 72 h, IC50 score, read-out: Cell 72 h SAM Inhibition (MTAP −/−; Example 276)
How it was run: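 MTAP-deleted HCT116 cells were dosed 24 h after plating with a 10-point 3-fold compound series in DMSO, then incubated 72 h at 37 °C/5% CO2. Cells were extracted in cold 80% methanol with acetic acid and d3-SAM internal standard. SAM was quantified by LC-MS/MS MRM (m/z 399.2→250.1).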

T1 sequence (P31153 whole entry): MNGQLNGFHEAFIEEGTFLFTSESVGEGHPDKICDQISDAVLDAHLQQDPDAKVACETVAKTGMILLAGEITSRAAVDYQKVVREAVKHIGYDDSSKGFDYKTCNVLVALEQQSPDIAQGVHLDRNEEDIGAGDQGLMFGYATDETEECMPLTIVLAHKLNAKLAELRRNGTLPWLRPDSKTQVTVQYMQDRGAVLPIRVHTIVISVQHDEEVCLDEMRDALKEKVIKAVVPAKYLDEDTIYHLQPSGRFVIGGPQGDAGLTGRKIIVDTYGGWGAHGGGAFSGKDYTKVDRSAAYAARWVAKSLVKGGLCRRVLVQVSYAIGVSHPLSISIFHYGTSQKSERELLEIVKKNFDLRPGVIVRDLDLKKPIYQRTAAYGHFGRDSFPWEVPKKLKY

Compound: CCOc1ncc2cn(-c3ccc4nn(C)cc4c3)c(=O)c(-c3ccc(Cl)cc3)c2n1 [Example 270, 8-(4-chlorophenyl)-2-ethoxy-6-(2-methyl-2H-indazol-5-yl)pyrido[4,3-d]pyrimidin-7(6H)-one]
- IC50 (MAT2A homodimer): < 100 nM
- IC50 (HCT116 MTAP−/−): < 100 nM
- IC50 (HCT116 MTAP+/+): > 10000 nM
- IC50 [1]: < 100 nM

Compound: CCOc1ncc2cn(-c3ccc4nn(C)cc4c3)c(=O)c(-c3ccc(OC(F)F)cc3)c2n1 [Example 272, 8-(4-(difluoromethoxy)phenyl)-2-ethoxy-6-(2-methyl-2H-indazol-5-yl)pyrido[4,3-d]pyrimidin-7(6H)-one]
- IC50 (MAT2A homodimer): < 100 nM
- IC50 (HCT116 MTAP−/−): 100 to 10000 nM
- IC50 (HCT116 MTAP+/+): > 10000 nM
- IC50 [1]: < 100 nM
